Marks after values point to notes of the source that are not given here.
Columns and labels:
MDA-MB-231 [1] = assay: Wound-healing (motility) assay, MDA-MB-231; type: cell-based, human; settings: for Migrating cells: 18-24 h; for inhibition (block) of PlGF-stimulated motility / migration: soluble Flt-1 2 nM, PD98059 50 μM, Wortmannin 5 nM
Experimental: (§1) MCF-7, MDA-MB-23 1, and MDA-MB-468 breast tumor cell lines or HECs were seeded onto sterile glass coverslips in Petri dishes or six-well plates. When the cells were 70-80% confluent, the monolayers were scratched with a sterile plastic pipet tip.
(§2) Inhibitor concentrations were 50 μM PD98059 (PD98) (mitogen activated protein kinase-kinase 1 [MEK1] inhibitor), 5 nM Wortmannin (phosphatidyl inositol 3 kinase [PI3K] inhibitor), or human recombinant soluble Flt-1 (sFlt-1) (R&D Systems). […] Cells were pre-incubated with PD98 and Wortmannin for 15-30 min before addition of PlGF. Stained (Wright-Giemsa) and mounted coverslips were examined microscopically. Five to ten 100× fields were evaluated by counting the number of cells separated from the wound edges and which appeared to be migrating toward the center of the wound. Results are reported as the average number of cells migrating into the wound/100× field. In some cases data from separate experiments were combined to accommodate inclusion of various treatments in the tables.
(§3) Antibody concentration was 1 μg/ml. MEK1 inhibitor, PD98059 (PD98), 50 μM. PI3K inhibitor, Wortmannin, 5 nM. […] Values for antibody and inhibitor treatments were from separate experiments which included all relevant controls. […] UT denotes untreated controls. *P<0.01 (ANOVA) compared to UT; † P<0.02 (ANOVA) compared to PlGF only. ‡ P<0.001 (ANOVA) compared to PlGF only.

MDA-MB-231 [2] = assay: Matrigel cell invasion assay, MDA-MB-231; type: cell-based, human; settings: 24 h
Experimental: Cellular invasion was determined by addition of 5×10^4cells to growth factor-reduced Matrigel invasion chambers (BD Biosciences Discovery Labware, Bedford, Mass.) (Taylor et al., 2003b; Passaniti et al., 1992, Lab Invest 67, 519-528). Additives to the Matrigel® plugs were pre-incubated together in a total volume of 100 μl PBS at RT for 10 min, after which each additive was added to the Matrigel. Growth factors (2.0 or 0.2 nM), peptide (2 μg/ml), or antibody (1 μg/ml) were added to cells in low serum (0.1% fetal bovine serum [FBS]) medium. Baseline and chemoattractant-based invasion (10% FBS) were included. The number of invading cells was determined by counting the number of cells on the bottom of the invasion chamber membrane after staining at 100× magnification after 24 h (MDA-MB-231) or 48 h (MCF-7, MDA-MB-468). The results of three to five separate experiments are presented.

MCF-7 = assay: Wound-healing (motility) assay, MCF-7; type: cell-based, human; settings: for Migrating cells: 18-24 h
Experimental: as §1, §2, §3

MDA-MB-468 = assay: Wound-healing (motility) assay, MDA-MB-468; type: cell-based, human; settings: for Migrating cells: 18-24 h
Experimental: as §1, §2, §3

MDA-MB-468 xenografts = type: in vivo, mice; settings: 200 μg/dose i.p., twice-weekly, after 4 weeks
Experimental: FIG. 5. Treatment of mice bearing MDA-MB-468 xenografts with peptides BP1 or BP3. Mice were treated every 3-4 days with 200 ug BP as described in Methods. Tumor volume was measured 2×/week. *P<0.05 at days 10, 14, 17 and 24 (change in tumor volume (ANOVA)). FIG. 5A—tumors treated with binding peptide 1. FIG. 5B—tumors treated with binding peptide 3.
Mice bearing MDA-MB-468 xenografts (average tumor volume: 0.19 cm^3) were treated with i.p. injections of individual peptides (200 μg/dose) (FIG. 5). After 4 weeks of twice-weekly treatment, tumor growth was inhibited by 49% and 58% in mice treated with BP1 (FIG. 5A) or BP3 (FIG. 5B), respectively. The effect of BP3 on tumor growth was apparent after 2 weeks of treatment (FIG. 5B), whereas the inhibitory effect of BP1 was evident after one week (FIG. 5A). The average changes in individual tumor volumes during treatment with BP1 were significant (P<0.05) at days 10, 14, 17 and 24 (FIG. 5A). Treatment with BP2 was ineffective; tumors continued to grow at almost the same rate as the mock-treated controls (results not shown). BP4 treatment produced a 20% inhibition of tumor growth (results not shown).

VEGF165 = biological target: T1, VEGF165 (Homo sapiens, UniProt P15692); assay: Free peptide binding ELISA (FLAG epitope probe), VEGF-coated wells; settings: ELISA-based binding assay
T1 construct: purchased R&D Systems
T1 sequence (P15692 27-191 isoform P15692-4): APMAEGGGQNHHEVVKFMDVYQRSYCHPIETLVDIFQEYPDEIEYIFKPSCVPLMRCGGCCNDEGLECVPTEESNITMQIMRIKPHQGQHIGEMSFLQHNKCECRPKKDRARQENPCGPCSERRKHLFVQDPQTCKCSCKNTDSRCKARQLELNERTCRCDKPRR
Experimental: (§4) Competition assays were done with 2.5 or 25 U/ml heparin (Sigma, St. Louis, Mo.). BP1, 3, 4, and a scrambled version of BP3 (scrBP3) were synthesized with a linker followed by the FLAG epitope ([…] SEQ ID NO:5) at the C-terminus. Thirty minutes after addition of the first reagent, the second reagent was added, followed by another 30 minute incubation. Peptide binding was assessed by probing for the FLAG epitope (Prickett et al., Biotechniques 7:580-9, 1989; Castrucci et al., J. Virol. 66:4647-53, 1992). Absorbance was read at 490 nm.

[3] = biological target: T2, recombinant human Flt-1 fusion protein (Homo sapiens, UniProt P17948); assay: Free peptide binding and competition ELISA, Flt-1-coated wells; settings: ELISA-based binding assay
T2 construct: purchased R & D Systems
Experimental: as §4

[4] = test system: MDA-MB-231 s.c. xenograft; assay: Subcutaneous MDA-MB-231 xenograft growth and lung metastasis; type: in vivo, nude mice; settings: subsequent experiment, start at 0.07-0.08 cm^3; 200 μg i.p.; mock 0.25
Experimental: The tissue-culture-grown human breast tumor cell line, MDA-MB-231, was implanted subcutaneously (s.c.) on the flanks of nude mice. When tumors were visible, the mice were weighed and the tumors measured. Treatment with peptides was begun when tumors averaged about 0.06-0.12 cm^3 in volume. Mice were treated with 200-μg peptide in PBS by i.p. injection at 3-4-day intervals for 4 weeks. Animals were weighed and the tumors measured at each treatment. In a second experiment, the control peptide, CPA, was included. Three days after the final treatment, tumors and lungs were harvested. Tumor burden of the lungs (from experiment 1) was determined by counting colonies (<20 cells), clusters (>20-100 cells), and nodules (>100 cells) seen in all the lung tissue on a total of 4 slides or sections for each mouse. Data are presented as the average number of each size of metastasis for each treatment group (3-4 mice/group). The total number of each was summed for each treatment group, and divided by the total number of mice in that group. The percent inhibition for metastasis was determined by the formula: % inhibition=(# mock-treated−# treated/# mock-treated)×100.
To test for therapeutic activity of the peptide, BP1, mice were implanted with human breast cancer cells, MDA-MB-231, which produces lung metastases spontaneously when implanted as a subcutaneous tumor. When the tumors averaged 0.12 cm^3 in volume, either mock-treatment or therapy with BP1 was initiated at 200 μg, two times per week for 4 weeks. […] In a subsequent experiment, treatment was commenced when tumors were 0.07-0.08 cm^3. After 4 weeks of treatment, as described, the mean volume of the mock- and CPA-treated tumors was 0.25 and 0.33 cm^3, respectively, whereas BP1-treated tumors averaged 0.04 cm^3 (P<0.05 BP1 vs. mock- or CPA-treated tumors) (FIG. 3A).

PlGF = biological target: T3, PlGF (Homo sapiens, UniProt P49763); assay: Free peptide binding ELISA (FLAG epitope probe), PlGF-coated wells; settings: free peptide; BP3, BP4, BP3scr at up to 50 μM
T3 construct: purchased R&D Systems
T3 sequence (P49763 19-170 isoform P49763-3 limits assumed): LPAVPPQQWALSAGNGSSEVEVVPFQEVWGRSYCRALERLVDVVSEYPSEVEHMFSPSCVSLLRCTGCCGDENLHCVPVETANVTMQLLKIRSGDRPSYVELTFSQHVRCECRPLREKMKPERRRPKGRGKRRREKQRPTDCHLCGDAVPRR
Experimental: as §4

MDA-MB-231 mfp tumor = assay: Orthotopic mammary fat pad (mfp) MDA-MB-231 model; type: in vivo, SCID mice
Description: MDA-MB-231, grown in tissue culture, was also implanted in the mammary fat pad (mfp) of SCID mice (3×10^6 cells, 4-5 mice/group). In this model, large pulmonary metastases are less likely to develop (Richert et al., Breast Cancer Res. 7:R819-27, 2005). Peptide treatment was commenced on day 5 after implantation, when small tumors were palpable in all mice (8 treatments). Three days after the final peptide treatment, tumors were removed and weighed. Lungs were harvested and examined microscopically for metastases, as described above.

[5] = PlGF 2 nM ± test agent, relative to PlGF-only value, unit assumed
[6] = growth factor PlGF 2 nM ± test agent (Flt-1 2 nM, peptide 2 μM, antibody 1 μg/ml, PD98059 50 μM, Wortmannin 5 nM)
[7] = growth factor VEGF 2 nM ± test agent (peptide 2 μM, antibody 1 μg/ml)
[8] = growth factor VEGF 2 nM ± test agent
[9] = VEGF 2 nM ± test agent, relative to VEGF-only value, unit assumed
[10] = growth factor PlGF 2 nM ± test agent (Flt-1 2 nM, peptide 2 μM, antibody 1 μg/ml)
[11] = PlGF 2 nM ± test agent, relative to PlGF-only value

T2 sequence (P17948 with tags, fused parts or gaps limits assumed): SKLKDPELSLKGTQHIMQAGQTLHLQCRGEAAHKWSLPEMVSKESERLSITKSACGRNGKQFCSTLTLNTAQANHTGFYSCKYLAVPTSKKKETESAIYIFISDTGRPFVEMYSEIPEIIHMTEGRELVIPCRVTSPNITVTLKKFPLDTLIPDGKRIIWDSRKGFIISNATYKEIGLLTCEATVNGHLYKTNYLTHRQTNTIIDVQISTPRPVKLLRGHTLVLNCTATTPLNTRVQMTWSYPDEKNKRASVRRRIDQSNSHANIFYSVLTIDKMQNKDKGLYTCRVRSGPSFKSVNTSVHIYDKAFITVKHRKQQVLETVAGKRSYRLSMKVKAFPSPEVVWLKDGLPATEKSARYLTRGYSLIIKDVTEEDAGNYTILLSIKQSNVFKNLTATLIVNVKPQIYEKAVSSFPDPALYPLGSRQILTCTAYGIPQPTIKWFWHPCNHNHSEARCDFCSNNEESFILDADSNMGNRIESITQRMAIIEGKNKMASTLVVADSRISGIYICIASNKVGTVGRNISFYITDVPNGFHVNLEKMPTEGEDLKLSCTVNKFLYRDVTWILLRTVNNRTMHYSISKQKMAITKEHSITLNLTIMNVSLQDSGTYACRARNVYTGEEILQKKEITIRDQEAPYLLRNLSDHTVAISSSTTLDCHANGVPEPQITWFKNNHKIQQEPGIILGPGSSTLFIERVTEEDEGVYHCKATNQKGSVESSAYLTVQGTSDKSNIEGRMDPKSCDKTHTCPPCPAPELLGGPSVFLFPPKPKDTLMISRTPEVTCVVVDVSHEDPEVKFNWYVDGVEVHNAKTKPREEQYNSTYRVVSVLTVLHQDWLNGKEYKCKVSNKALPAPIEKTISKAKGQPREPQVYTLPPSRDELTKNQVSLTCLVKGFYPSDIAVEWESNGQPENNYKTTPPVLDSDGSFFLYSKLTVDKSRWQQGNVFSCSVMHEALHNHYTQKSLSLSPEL

COc1cccc(-c2cc(=O)c3ccccc3o2)c1N [PD98059, reference compound]
Relative activity (MDA-MB-231 [1]; [5]): 43% | Migrating cells (MDA-MB-231 [1]; [6]): 18.4 ± 8.0‡ cells/100× field | inhibition (block) of PlGF-stimulated motility / migration (MDA-MB-231 [1]): 68%

VEGF
Migrating cells (MDA-MB-231 [1]; [7]): 11.1 ± 1.8 cells/100× field | invading cells (MDA-MB-231 [2]; VEGF 2.0 nM or 0.2 nM): 10±8.0 cells | Migrating cells (MCF-7; [8]): 12.7 ± 4.1 cells/100× field | Migrating cells (MDA-MB-468; [8]): 14.0 ± 11.3 cells/100× field

COC[C@H]1OC(=O)c2coc3c2[C@@]1(C)C1=C(C3=O)[C@@H]2CCC(=O)[C@@]2(C)C[C@H]1OC(C)=O [Wortmannin, reference compound]
Relative activity (MDA-MB-231 [1]; [5]): 39% | Migrating cells (MDA-MB-231 [1]; [6]): 16.4 ± 5.8‡ cells/100× field | inhibition (block) of PlGF-stimulated motility / migration (MDA-MB-231 [1]): 72%

QDDHLTTGR (listed as Homo sapiens) [BP2]
tumor growth inhibition (MDA-MB-468 xenografts): ineffective

CPA: control peptide derived by substituting A for the H, R and D residues in BP1 (SAAYALAIQLAASASSSSCV) [reference compound]
Relative activity (MDA-MB-231 [1]; [9]): 121% | effect on PlGF-stimulated motility (in words) (MDA-MB-231 [1]; antibody 1 μg/ml, peptide 2 μM): had no effect | Migrating cells (MDA-MB-231 [1]; [6]): 39.8 ± 10.6 cells/100× field | Migrating cells (MDA-MB-231 [1]; [7]): 13.4 ± 4.5 cells/100× field | binding to VEGF (in words) (VEGF165): bound | attenuated affinity for Flt-1 [3]: 50% | mean tumor volume after 4 weeks of treatment [4]: 0.33 cm^3 | invading cells, PlGF plus peptide (MDA-MB-231 [2]; PlGF-stimulated invasion with added peptide): 35±17.3 cells | binding to PlGF (in words) (PlGF): bound | tumor weight (MDA-MB-231 mfp tumor; 8 peptide treatments, mock-treated 0.423±0.089): 0.416 ± 0.083 g | micrometastasis counts per mouse (MDA-MB-231 mfp tumor; lung, mock-treated 3.4±1.9): 2.8±1.3 | Relative activity (MCF-7; [9]): 111% | Migrating cells (MCF-7; [8]): 19.4 ± 8.9 cells/100× field | Relative activity (MDA-MB-468; [9]): 104% | Migrating cells (MDA-MB-468; [10]): 21.6 ± 6.1 cells/100× field | Migrating cells (MDA-MB-468; [8]): 14.6 ± 8.0 cells/100× field

B1: Flt-1: human recombinant soluble Flt-1 (sFlt-1) (R&D Systems) (protein)
chain: SKLKDPELSLKGTQHIMQAGQTLHLQCRGEAAHKWSLPEMVSKESERLSITKSACGRNGKQFCSTLTLNTAQANHTGFYSCKYLAVPTSKKKETESAIYIFISDTGRPFVEMYSEIPEIIHMTEGRELVIPCRVTSPNITVTLKKFPLDTLIPDGKRIIWDSRKGFIISNATYKEIGLLTCEATVNGHLYKTNYLTHRQTNTIIDVQISTPRPVKLLRGHTLVLNCTATTPLNTRVQMTWSYPDEKNKRASVRRRIDQSNSHANIFYSVLTIDKMQNKDKGLYTCRVRSGPSFKSVNTSVHIYDKAFITVKHRKQQVLETVAGKRSYRLSMKVKAFPSPEVVWLKDGLPATEKSARYLTRGYSLIIKDVTEEDAGNYTILLSIKQSNVFKNLTATLIVNVKPQIYEKAVSSFPDPALYPLGSRQILTCTAYGIPQPTIKWFWHPCNHNHSEARCDFCSNNEESFILDADSNMGNRIESITQRMAIIEGKNKMASTLVVADSRISGIYICIASNKVGTVGRNISFYITDVPNGFHVNLEKMPTEGEDLKLSCTVNKFLYRDVTWILLRTVNNRTMHYSISKQKMAITKEHSITLNLTIMNVSLQDSGTYACRARNVYTGEEILQKKEITIRDQEAPYLLRNLSDHTVAISSSTTLDCHANGVPEPQITWFKNNHKIQQEPGIILGPGSSTLFIERVTEEDEGVYHCKATNQKGSVESSAYLTVQGTSDKSN
modifications: left off: large carriers
Relative activity (MDA-MB-231 [1]; [11]): 45 | Migrating cells (MDA-MB-231 [1]; [6]): 19.1 ± 8.0† cells/100× field | inhibition (block) of PlGF-stimulated motility / migration (MDA-MB-231 [1]): 55% | Relative activity (MCF-7; [11]): 47 | Migrating cells (MCF-7; [10]): 10.4 ± 8.2† cells/100× field | block of the stimulatory effect of PlGF on motility (MCF-7; soluble Flt-1 2 nM): 67% | Relative activity (MDA-MB-468; [11]): 53 | Migrating cells (MDA-MB-468; [10]): 7.8 ± 5.9† cells/100× field
